Assay results taken from patent US20180078529A1, “ANGIOTENSIN II RECEPTOR AGONIST FOR TREATING PULMONARY FIBROSIS” (VICORE PHARMA AB, priority 2015, published 2018).

Tested on: Patients have a diagnosis of Idiopathic Pulmonary Fibrosis, IPF
Assay: Treatment of patients with Idiopathic Pulmonary Fibrosis with C21 (Examples 1 and 2)
Type: in vivo, human
Conditions: a few weeks after starting treatment
Method: Patients have a diagnosis of Idiopathic Pulmonary Fibrosis, IPF, who generally are above the age of 60 years, often with concomitant diseases, like ischemic heart disease, diabetes etc. Patients may either be treated for IPF with currently established drugs, e.g. pirfenidone and/or nintedanib or treatment-naïve. Each patient receives a compound of the invention, C21, in a dose range between 0.3 mg and 100 mg daily that is administered once or several times daily. Control groups are administered placebo, or one or more currently established therapies, e.g. pirfenidone and/or nintedanib. The compound, C21, is in a formulation hat can be administered to the patient orally, via inhalation, intravenously or as a combination of more than one route of administration for the treatment of IPF. The treatment is evaluated through efficacy variables such as objective measurements of improved lung capacity/cardiac function and subjective symptoms and quality of life—both at visits to doctors' office and in the patient's home or work environment. Beneficial effects are recorded and followed after one to several months' treatment with the compound, C21, vs placebo or vs currently established therapy(-ies), e.g. pirfenidone and/or nintedanib.
Patients have a diagnosis of Idiopathic Pulmonary Fibrosis, IPF, and are treated according to EXAMPLE 1. […] Furthermore, cardiac function tests, e.g. echo or MRI, may indicate improvements in the underlying lung disease resulting in improved cardiac performance. Benefits may also be seen as an improvement in progression-free survival, where the number of deaths is analyzed together with the number of patients presenting with pre-defined marked reduction of FVC and/or exercise capacity. Benefits can be either self-reported or objectively recorded. Improvements in symptoms may include less dyspnea, less cough, less fatigue, increased exercise capacity and improved quality of life. Improvements may be seen in treatment-naïve patients as well as in those already on treatment with established therapies for IPF.

CCCCOC(=O)NS(=O)(=O)c1sc(CC(C)C)cc1-c1ccc(Cn2ccnc2)cc1 [Compound C21, N-Butyloxycarbonyl-3-(4-imidazol-1-ylmethylphenyl)-5-iso-butylthiophene-2-sulfonamide]
dyspnea and cough (patient-reported): slight improvement
exercise capacity (patient with IPF): without any deterioration
biomarkers that are relevant for the progression of the disease (blood tests) (patient with IPF, C21 0.3 mg to 100 mg daily): improvement in biomarkers
